# Source: ChEMBL document CHEMBL5385907, “Proline-Hinged α-Helical Peptides Sensitize Gram-Positive Antibiotics, Expanding Their Physicochemical Properties to Be Used as Gram-Negative Antibiotics” (J Med Chem, 2024)
# The source made the active and inactive calls. The rule behind the calls is not given here. Residues, ends and D or L forms follow the SMILES beside them.
# How the values were obtained:
# [1] = system: Acinetobacter baumannii; test: Potentiation of fusidic acid induced antibacterial activity against Acinetobacter baumannii ATCC 17978 assessed as decrease in bacterial growth at 0.4 uM incubated for 18 hrs in presence of fusidic acid by two fold serial dilution assay; assay type: functional, organism-based
# [2] = system: Klebsiella pneumoniae; test: Potentiation of erythromycin induced antibacterial activity against Klebsiella pneumoniae ATCC 700603 assessed as decrease in bacterial growth at 0.4 uM incubated for 18 hrs in presence of erythromycin by two fold serial dilution assay; assay type: functional, organism-based
# [3] = Hydrophobicity of the compound assessed as retention time by reversed-phase HPLC analysis; assay type: physicochemical
# [4] = system: Klebsiella pneumoniae; test: Potentiation of fusidic acid induced antibacterial activity against Klebsiella pneumoniae ATCC 700603 assessed as decrease in bacterial growth at 0.4 uM incubated for 18 hrs in presence of fusidic acid by two fold serial dilution assay; assay type: functional, organism-based
# [5] = system: Klebsiella pneumoniae; test: Potentiation of novobiocin induced antibacterial activity against Klebsiella pneumoniae ATCC 700603 assessed as decrease in bacterial growth at 0.4 uM incubated for 18 hrs in presence of novobiocin by two fold serial dilution assay; assay type: functional, organism-based
# [6] = system: Acinetobacter baumannii; test: Antibacterial activity against Acinetobacter baumannii ATCC 17978 assessed as inhibition of bacterial growth incubated for 18 hrs by two fold serial dilution assay; assay type: functional
# [7] = system: Escherichia coli; test: Antibacterial activity against Escherichia coli ATCC 25922 assessed as inhibition of bacterial growth incubated for 18 hrs by two fold serial dilution assay; assay type: functional
# [8] = system: Klebsiella pneumoniae; test: Antibacterial activity against Klebsiella pneumoniae ATCC 700603 assessed as inhibition of bacterial growth incubated for 18 hrs by two fold serial dilution assay; assay type: functional
# [9] = system: Escherichia coli; test: Potentiation of erythromycin induced antibacterial activity against Escherichia coli ATCC 25922 assessed as decrease in bacterial growth at 0.4 uM incubated for 18 hrs in presence of erythromycin by two fold serial dilution assay; assay type: functional, organism-based
# [10] = system: Escherichia coli; test: Potentiation of novobiocin induced antibacterial activity against Escherichia coli ATCC 25922 assessed as decrease in bacterial growth at 0.4 uM incubated for 18 hrs in presence of novobiocin by two fold serial dilution assay; assay type: functional, organism-based
# [11] = system: Acinetobacter baumannii; test: Potentiation of novobiocin induced antibacterial activity against Acinetobacter baumannii ATCC 17978 assessed as decrease in bacterial growth at 0.4 uM incubated for 18 hrs in presence of novobiocin by two fold serial dilution assay; assay type: functional, organism-based
# [12] = system: Acinetobacter baumannii; test: Potentiation of erythromycin induced antibacterial activity against Acinetobacter baumannii ATCC 17978 assessed as decrease in bacterial growth at 0.4 uM incubated for 18 hrs in presence of erythromycin by two fold serial dilution assay; assay type: functional, organism-based
# [13] = Hemolytic activity in human blood assessed as hemolysis incubated for 6 hrs by microplate reader analysis; assay type: toxicity, tissue-based
# [14] = system: Escherichia coli; test: Potentiation of fusidic acid induced antibacterial activity against Escherichia coli ATCC 25922 assessed as decrease in bacterial growth at 0.4 uM incubated for 18 hrs in presence of fusidic acid by two fold serial dilution assay; assay type: functional, organism-based
Compound,Activity [1],Activity [2],Retention_time [3],Activity [4],Activity [5],MIC [6],MIC [7],MIC [8],Activity [9],Activity [10],Activity [11],Activity [12],MHC10 [13],Activity [14]
CC(=O)N[C@@H](CCCCN)C(=O)N[C@@H](CCCCN)C(=O)N[C@@H](CC(C)C)C(=O)N[C@@H](CC(C)C)C(=O)N[C@@H](CCCCN)C(=O)N[C@@H](CC(C)C)C(=O)N[C@@H](CC(C)C)C(=O)N[C@@H](CCCCN)C(=O)N[C@@H](CCCCN)C(=O)N1CCC[C@H]1C(=O)N[C@@H](CC(C)C)C(=O)N[C@@H](CCCCN)C(=O)N[C@@H](CC(C)C)C(=O)N[C@@H](CC(C)C)C(=O)N[C@@H](CCCCN)C(N)=O,Active,Active,18.2 min,Active,Active,10 µM,> 80 µM,> 80 µM,Active,Active,Active,Active,> 160 µM,Active
CCCCCCCCCCCCCCCC(=O)N[C@@H](CCCCN)C(=O)N[C@@H](CCCCN)C(=O)N[C@@H](C)C(=O)N[C@@H](CC(C)C)C(=O)N[C@@H](CCCCN)C(=O)N[C@@H](CC(C)C)C(=O)N[C@@H](C)C(=O)N[C@@H](CCCCN)C(=O)N[C@@H](CCCCN)C(=O)N1CCC[C@H]1C(=O)N[C@@H](CC(C)C)C(=O)N[C@@H](CCCCN)C(=O)N[C@@H](CC(C)C)C(=O)N[C@@H](CC(C)C)C(=O)N[C@@H](CCCCN)C(N)=O (HELM PEPTIDE1{[CCCCCCCCCCCCCCCC(=O)[*:2]].K.K.A.L.K.L.A.K.K.P.L.K.L.L.K.[am]}$$$$V2.0),–,–,22.9 min,–,–,1.3 µM,5 µM,10 µM,–,–,–,–,5.9 µM,–
Ac-AKLLKLLKKPLKLLK-NH2,Active,Active,19.2 min,Active,Active,40 µM,> 80 µM,> 80 µM,Active,Active,Active,Active,> 160 µM,Active
Ac-KALLKLLKKPLKLLK-NH2,Active,Active,19.4 min,Active,Active,20 µM,> 80 µM,> 80 µM,Active,Active,Active,Active,> 160 µM,Active
Ac-KKALKLAKKPLKLLK-NH2,–,–,15.3 min,–,–,> 80 µM,> 80 µM,> 80 µM,–,–,–,–,> 160 µM,–
Ac-KKALKLLKKPLKLLK-NH2,Active,Active,16.7 min,Active,Active,> 80 µM,> 80 µM,> 80 µM,Active,Active,Active,Active,> 160 µM,Active
Ac-KKLAKLLKKPLKLLK-NH2,Active,Active,17.1 min,Active,Active,80 µM,> 80 µM,> 80 µM,Active,Active,Active,Active,> 160 µM,Active
Ac-KKLLALLKKPLKLLK-NH2,Active,Active,19.4 min,Active,Active,20 µM,80 µM,80 µM,Active,Active,Active,Active,> 160 µM,Active
Ac-KKLLKLAKKPLKLLK-NH2,Active,Active,16.8 min,Active,Active,> 80 µM,> 80 µM,> 80 µM,Active,Active,Active,Active,> 160 µM,Active
Ac-KKLLKLLAKPLKLLK-NH2,Active,Active,19.6 min,Active,Active,40 µM,> 80 µM,> 80 µM,Active,Active,Active,Active,> 160 µM,Active
Ac-KKLLKLLKAPLKLLK-NH2,Active,Active,19.6 min,Active,Active,20 µM,> 80 µM,> 80 µM,Active,Active,Active,Active,> 160 µM,Active
